How the values were obtained:
Type in all cases: cell-based
[1] = tested on: Human breast cancer cell lines T-47D; test: Caspase cascade activation (Ac-DEVD-R110 fluorogenic substrate) in T-47D cells; details: T47D cells, 48 h incubation, read-out: caspase potency EC50 T47D
Description: (§1) Human breast cancer cell lines T-47D, human hepatocellular carcinoma cell line SNU398, human colon carcinoma cell line HCT116, human cancer cell line H11299, human Burkitt's lymphoma cell line Namalwa, human lymphoma cell line Raji, and human B cell lymphoblastoid cell line Ramos were grown according to media component mixtures designated by American Type Culture Collection+10% FCS (Invitrogen Corporation), in a 5% CO2-95% humidity incubator at 37° C. T-47D and H1299 cells were maintained at a cell density between 50 and 80% confluency at a cell density of 0.1 to 0.6×10^6 cells/mL. Cells were harvested at 600×g and resuspended at 0.65×10^6 cells/mL into appropriate media+10% FCS. An aliquot of 22.5 μL of cells was added to a well of a 384-well microtiter plate containing 2.5 μL of a 10% DMSO in RPMI-1640 media solution containing 0.16 to 100 μM of 6-(3,4-dimethoxyphenyl)-3-(2-methoxyphenyl)-[1,2,4]triazolo[3,4-b][1,3,4]thiadiazole or other test compound (0.016 to 10 μM final). An aliquot of 22.5 μL of cells was added to a well of a 384-well microtiter plate containing 2.5 μL of a 10% DMSO in RPMI-1640 media solution without test compound as the control sample. The samples were mixed by agitation and then incubated at 37° C. for 48 h in a 5% CO2-95% humidity incubator. After incubation, the samples were removed from the incubator and 25 μL of a solution containing 14 μM of N-(Ac-DEVD)-N′-ethoxycarbonyl-R110 (SEQ ID No.:1) fluorogenic substrate (Cytovia, Inc.; WO99/18856), 20% sucrose (Sigma), 20 mM DTT (Sigma), 200 mM NaCl (Sigma), 40 mM Na PIPES buffer pH 7.2 (Sigma), and 500 μg/mL lysolecithin (Calbiochem) was added. The samples were mixed by agitation and incubated at room temperature. Using a fluorescent plate reader (Model SPECTRAfluor Plus, Tecan), an initial reading (T=0) was made approximately 1-2 min after addition of the substrate solution, employing excitation at 485 nm and emission at 530 nm, to determine the background fluorescence of the control sample. After the 3 h incubation, the samples were read for fluorescence as above (T=3 h).
(§2) The Relative Fluorescence Unit values (RFU) were used to calculate the sample readings as follows: RFU(T=3h)−Control RFU(T=0)=Net RFU(T=3h)
(§3) The activity of caspase cascade activation was determined by the ratio of the net RFU value for 6-(3,4-dimethoxyphenyl)-3-(2-methoxyphenyl)-[1,2,4]triazolo[3,4-b][1,3,4]thiadiazole (Example I) or other test compound to that of control samples. The EC50 (nM) was determined by a sigmoidal dose-response calculation (Prism 3.0, GraphPad Software Inc.).

[2] = tested on: human colon carcinoma cell line HCT116; test: Caspase cascade activation in HCT116 cells; details: HCT-116, 48 h incubation, read-out: caspase potency EC50 HCT116
Description: as §1, §2, §3

[3] = tested on: human hepatocellular carcinoma cell line SNU398; test: Caspase cascade activation in SNU398 cells; details: SNU-398, 48 h incubation, read-out: caspase potency EC50 SNU398
Description: as §1, §2, §3

[4] = tested on: human Burkitt's lymphoma cell line Namalwa; test: Caspase cascade activation in Namalwa cells; details: Burkitts lymphoma cell, 48 h incubation, read-out: caspase potency EC50 Namalwa
Description: as §1, §2, §3

[5] = tested on: Human breast cancer cell lines T-47D; test: Inhibition of cell proliferation (GI50, CellTiter-Glo) in T-47D cells; details: T47D cells, 48 h incubation
Description: (§4) Human breast cancer cell lines T-47D, MX1 and MDAMB435, human colon carcinoma cell line HCT116, human leukemia cell line K562, human lymphoma cell line Raji, human B cell lymphoblastoid cell line Ramos, and human Burkitt's lymphoma cell line Namalwa were grown and harvested as in Example 14. An aliquot of […] of cells (4.4×10^4 cells/mL) was added to a well of a 96-well microtiter plate containing 5 μL of a 10% DMSO in RPMI-1640 media solution containing 10 nM to 100 μM of 6-(3,4-dimethoxyphenyl)-3-(2-methoxyphenyl)-[1,2,4]triazolo[3,4-b][1,3,4]thiadiazole (1 nM to 10 μM final). An aliquot of 45 μL of cells was added to a well of a 96-well microtiter plate containing 5 μL of a 10% DMSO in RPMI-1640 media solution without compound as the control sample for maximal cell proliferation (LMax). The samples were mixed by agitation and then incubated at 37° C. for 48 h in a 5% CO2-95% humidity incubator. After incubation, the samples were removed from the incubator and 25 μL of CellTiter-Glo™ reagent (Promega) was added. The samples were mixed by agitation and incubated at room temperature for 10-15 min. Plates were then read using a luminescent plate reader (Model SPECTRAfluor Plus, Tecan) to give Ltest values.
(§5) The samples were mixed by agitation and then incubated at 37° C. for 0.5 h in a 5% CO2-95% humidity incubator. After incubation, the samples were removed from the incubator and 25 μL of CellTiter-Glo™ reagent (Promega) was added. The samples were mixed by agitation and incubated at […] 10-15 min at room temperature in a 5% CO2-95% humidity incubator. Fluorescence was read as above, (LStart) defining luminescence for initial cell number used as baseline in GI50 determinations.
(§6) GI50 (dose for 50% inhibition of cell proliferation) is the concentration where [(LTest−LStart)/(LMax−LStart)]=0.5.

[6] = tested on: human colon carcinoma cell line HCT116; test: Inhibition of cell proliferation (GI50) in HCT116 cells; details: HCT 116 cells, 48 h incubation
Description: as §4, §5, §6

[7] = tested on: human Burkitt's lymphoma cell line Namalwa; test: Inhibition of cell proliferation (GI50) in Namalwa cells; details: Burkitts lymphoma cell, 48 h incubation
Description: as §4, §5, §6

[8] = tested on: human lymphoma cell line Raji; test: Caspase cascade activation in Raji cells; details: RAJ1 cells, 48 h incubation, read-out: caspase potency EC50 RAJ1
Description: as §1, §2, §3

[9] = tested on: human B cell lymphoblastoid cell line Ramos; test: Caspase cascade activation in Ramos cells; details: 48 h incubation, read-out: caspase potency EC50 RAMOS
Description: as §1, §2, §3

[10] = tested on: human lymphoma cell line Raji; test: Inhibition of cell proliferation (GI50) in Raji cells; details: 48 h incubation
Description: as §4, §5, §6

[11] = tested on: human B cell lymphoblastoid cell line Ramos; test: Inhibition of cell proliferation (GI50) in Ramos cells; details: 48 h incubation
Description: as §4, §5, §6

[12] = tested on: human leukemia cell line K562; test: Inhibition of cell proliferation (GI50) in K562 cells; details: 48 h incubation
Description: as §4, §5, §6

[13] = tested on: human cancer cell line H1299; test: Caspase cascade activation in H1299 cells; details: NCI-H1299, 48 h incubation, read-out: caspase potency EC50 H1299
Description: as §1, §2, §3

Compound	EC50 [1]	EC50 [2]	EC50 [3]	EC50 [4]	GI50 [5]	GI50 [6]	GI50 [7]	EC50 [8]	EC50 [9]	GI50 [10]	GI50 [11]	GI50 [12]	EC50 [13]
COc1ccccc1-c1nnc2sc(-c3ccc(C)c(N)c3)nn12 [Entry 5, 6-(3-Amino-4-methylphenyl)-3-(2-methoxyphenyl)-[1,2,4]triazolo[3,4-b][1,3,4]thiadiazole]	0.121 µM	0.04 µM	0.033 µM	0.018 µM	0.022 µM	0.107 µM	0.021 µM						
COc1ccc(-c2nn3c(-c4ccccc4OC)nnc3s2)cc1N [Entry 7, 6-(3-Amino-4-methoxyphenyl)-3-(2-methoxyphenyl)-[1,2,4]triazolo[3,4-b][1,3,4]thiadiazole]	0.284 µM	0.021 µM	0.019 µM	0.018 µM	0.1 µM	0.083 µM	0.014 µM						
COc1cc(-c2nnc3sc(-c4ccc(C)c(C)c4)nn23)cc(OC)c1OC [Entry T, 6-(3,4-Dimethylphenyl)-3-(3,4,5-trimethoxyphenyl)-[1,2,4]triazolo[3,4-b][1,3,4]thiadiazole]	0.517 µM	0.336 µM	0.297 µM	0.611 µM		0.906 µM	0.5 µM	0.49 µM	0.314 µM	0.559 µM	0.137 µM	0.131 µM	
Cc1cccc(-c2nn3c(-c4ccc(Cl)cc4Cl)nnc3s2)c1 [K, 3-(2,4-Dichlorophenyl)-6-m-tolyl-[1,2,4]triazolo[3,4-b][1,3,4]thiadiazole]	0.607 µM	0.661 µM	0.482 µM	0.469 µM		0.4 µM	0.559 µM	0.505 µM	0.387 µM	0.5 µM	0.123 µM	0.379 µM	
Clc1ccccc1-c1nnc2sc(-c3ccc4c(c3)OCO4)nn12 [L, 3-(2-Chlorophenyl)-6-(3,4-methylenedioxyphenyl)-[1,2,4]triazolo[3,4-b][1,3,4]thiadiazole]	2.62 µM	> 10 µM	> 10 µM	> 10 µM				> 10 µM	> 10 µM				> 10 µM
COc1ccc(-c2nn3c(-c4ccc(Cl)cc4)nnc3s2)cc1 [M, 3-(4-Chlorophenyl)-6-(4-methoxyphenyl)-[1,2,4]triazolo[3,4-b][1,3,4]thiadiazole]	4.48 µM	> 10 µM	> 10 µM	> 10 µM				> 10 µM	> 10 µM				5.05 µM
COc1ccc(-c2nn3c(-c4ccc(Cl)cc4Cl)nnc3s2)cc1OC [N, 3-(2,4-Dichlorophenyl)-6-(3,4-dimethoxyphenyl)-[1,2,4]triazolo[3,4-b][1,3,4]thiadiazole]	5.02 µM	> 10 µM	> 10 µM	5.51 µM				> 10 µM	5.78 µM				> 10 µM
CCOc1ccc(-c2nn3c(-c4ccccc4Cl)nnc3s2)cc1 [O, 3-(2-Chlorophenyl)-6-(4-ethoxyphenyl)-[1,2,4]triazolo[3,4-b][1,3,4]thiadiazole]	2.43 µM	> 10 µM	> 10 µM	> 10 µM				> 10 µM	> 10 µM				> 10 µM
CCOc1ccc(-c2nn3c(-c4ccccc4C)nnc3s2)cc1 [P, 6-(4-Ethoxyphenyl)-3-o-tolyl-[1,2,4]triazolo[3,4-b][1,3,4]thiadiazole]	2.37 µM	5.75 µM	5.55 µM	> 10 µM		> 10 µM	7.69 µM	> 10 µM	5.71 µM	9.74 µM	6.42 µM	3.27 µM	5.14 µM
Clc1ccccc1-c1nnc2sc(-c3ccc4c(c3)OCCO4)nn12 [Q, 3-(2-Chlorophenyl)-6-(3,4-ethylenedioxyphenyl)-[1,2,4]triazolo[3,4-b][1,3,4]thiadiazole]	2.45 µM	2.67 µM	2.12 µM	0.552 µM		6.04 µM	2.04 µM	0.688 µM	0.532 µM	6.73 µM	1.3 µM	1.88 µM	
COc1cc(-c2nnc3sc(-c4ccco4)nn23)cc(OC)c1OC [R, 6-(Furan-2-yl)-3-(3,4,5-trimethoxyphenyl)-[1,2,4]triazolo[3,4-b][1,3,4]thiadiazole]	0.203 µM	0.216 µM	0.183 µM	0.244 µM		1.5 µM	0.45 µM	0.253 µM	0.241 µM	0.651 µM	0.442 µM	0.15 µM	
COc1cccc(-c2nn3c(-c4cc(OC)c(OC)c(OC)c4)nnc3s2)c1 [U, 6-(3-Methoxyphenyl)-3-(3,4,5-trimethoxyphenyl)-[1,2,4]triazolo[3,4-b][1,3,4]thiadiazole]	2.74 µM	> 10 µM	> 10 µM	> 10 µM		> 10 µM	> 10 µM	> 10 µM	> 10 µM	4.64 µM	2.69 µM	2.77 µM	
COc1ccc(-c2nn3c(-c4cc(OC)c(OC)c(OC)c4)nnc3s2)cc1OC [V, 6-(3,4-Dimethoxyphenyl)-3-(3,4,5-trimethoxyphenyl)-[1,2,4]triazolo[3,4-b][1,3,4]thiadiazole]	> 10 µM	> 10 µM	> 10 µM	> 10 µM		5 µM	> 10 µM	> 10 µM	2.32 µM	5 µM	3.65 µM	1.6 µM	

Source: US7732468B2, “3-aryl-6-aryl-[ 1,2,4]triazolo[3,4-b][1,3,4]thiadiazoles and related compounds as activators of caspases and inducers of apoptosis and the use thereof” (Cytovia, Inc., priority 2006, dated 2010)
